Laboratory results from publication PMC3977054, “Design, Synthesis and Biological Evaluation of 5-Oxo-1,4,5,6,7,8 Hexahydroquinoline Derivatives as Selective Cyclooxygenase-2 Inhibitors” (Iranian Journal of Pharmaceutical Research : IJPR, 2014).

What was measured:
[1] = target: T1, COX-1 (Ovis aries, UniProt P05979); assay: biochemical; details: ovine COX-1/COX-2 assay kit; mean of two determinations, deviation < 10% of the mean
T1 construct: purchased Cayman chemical, MI, USA
T1 sequence (P05979 25-600): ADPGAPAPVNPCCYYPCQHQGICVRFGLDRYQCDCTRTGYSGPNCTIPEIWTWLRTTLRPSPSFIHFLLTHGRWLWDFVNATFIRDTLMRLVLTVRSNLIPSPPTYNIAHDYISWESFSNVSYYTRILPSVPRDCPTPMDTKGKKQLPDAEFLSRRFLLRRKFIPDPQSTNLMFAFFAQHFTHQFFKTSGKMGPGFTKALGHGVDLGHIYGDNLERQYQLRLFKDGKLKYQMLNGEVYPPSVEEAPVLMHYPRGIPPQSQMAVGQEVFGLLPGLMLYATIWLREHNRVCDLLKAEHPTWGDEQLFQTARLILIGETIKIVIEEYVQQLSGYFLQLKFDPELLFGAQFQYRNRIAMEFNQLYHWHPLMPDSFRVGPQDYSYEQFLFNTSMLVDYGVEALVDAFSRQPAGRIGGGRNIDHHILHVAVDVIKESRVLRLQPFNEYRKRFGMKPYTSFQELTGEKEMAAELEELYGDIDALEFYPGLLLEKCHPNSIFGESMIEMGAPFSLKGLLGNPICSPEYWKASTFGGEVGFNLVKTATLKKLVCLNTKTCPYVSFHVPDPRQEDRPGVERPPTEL
Procedure: (§1) In-vitro cyclooxygenase (COX) inhibition assays
(§2) The assay was performed using an enzyme chemiluminescent kit (Cayman chemical, MI, USA) according to our previously reported method ([10]).

[2] = target: T2, COX-2 (Ovis aries, UniProt P79208); assay: biochemical; details: for COX-2 S.I. (COX-1 IC50/ COX-2 IC50): in-vitro COX-2 selectivity index; for IC50: ovine COX-1/COX-2 assay kit, mean of two determinations, deviation < 10% of the mean
T2 construct: purchased Cayman chemical, MI, USA
T2 sequence (P79208 17-603): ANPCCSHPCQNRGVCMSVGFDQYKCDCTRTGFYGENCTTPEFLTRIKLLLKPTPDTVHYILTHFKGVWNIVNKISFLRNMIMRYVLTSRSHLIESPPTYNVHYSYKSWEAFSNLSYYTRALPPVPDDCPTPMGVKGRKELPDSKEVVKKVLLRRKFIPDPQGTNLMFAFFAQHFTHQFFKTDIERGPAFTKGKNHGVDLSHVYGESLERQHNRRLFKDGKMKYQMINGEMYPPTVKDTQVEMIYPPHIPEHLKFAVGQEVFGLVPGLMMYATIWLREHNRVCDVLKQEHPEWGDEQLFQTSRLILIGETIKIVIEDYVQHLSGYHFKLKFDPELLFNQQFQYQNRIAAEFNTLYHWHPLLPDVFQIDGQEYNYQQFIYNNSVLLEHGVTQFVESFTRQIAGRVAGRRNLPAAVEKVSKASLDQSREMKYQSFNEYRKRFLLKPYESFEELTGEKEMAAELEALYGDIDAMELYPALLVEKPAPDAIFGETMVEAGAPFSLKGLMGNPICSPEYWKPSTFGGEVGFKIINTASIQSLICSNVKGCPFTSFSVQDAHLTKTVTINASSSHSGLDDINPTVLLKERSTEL
Procedure: as §1, §2

SMILES	melting point [°C]	IC50 [1] [µM]	COX-2 S.I. (COX-1 IC50/ COX-2 IC50) [2]	IC50 [2] [µM]
CC1(C)CC(=O)C2=C(C1)NC(c1ccc(Cl)cc1)=CC2c1ccc(S(C)(=O)=O)cc1 (stereo not shown) [Compound 9l, 2-(4-Cholorophenyl)-7,8-dihydro-7,7-dimethyl-4-(4-(methylsulfonyl)phenyl) quinolin-5(1H, 4H, 6H)-one]	226 to 230	21.6	3.1	6.9
CC1(C)CC(=O)C2=C(C1)NC(c1ccc(S(C)(=O)=O)cc1)=CC2c1ccc([N+](=O)[O-])cc1 (stereo not shown) [Compound 9g]		17.6	1.1	16.6
Cc1ccc(C2=CC(c3ccc(S(C)(=O)=O)cc3)C3=C(CC(C)(C)CC3=O)N2)cc1 (stereo not shown) [Compound 9i, 7,8-Dihydro-7,7-dimethyl-2-(4-methylphenyl)-4-(4-(methylsulfonyl)phenyl) quinolin-5(1H, 4H, 6H)-one]	223 to 225	2.9	2.2	1.3
CC1(C)CC(=O)C2=C(C1)NC(c1ccc(F)cc1)=CC2c1ccc(S(C)(=O)=O)cc1 (stereo not shown) [Compound 9k, 2-(4-Fluorophenyl)-7,8-dihydro-7,7-dimethyl-4-(4-(methylsulfonyl)phenyl) quinolin-5 (1H, 4H, 6H)-one]	226 to 230	14.2	14.2	1
CC1(C)CC(=O)C2=C(C1)NC(c1ccc(S(C)(=O)=O)cc1)=CC2c1ccc(Cl)cc1 (stereo not shown) [Compound 9e]	232 to 236	18.7	3.8	4.9
CC1(C)CC(=O)C2=C(C1)NC(c1ccc(S(C)(=O)=O)cc1)=CC2c1ccc(Br)cc1 (stereo not shown) [Compound 9f]	237 to 240	20.9	2.1	10.1
COc1ccc(C2C=C(c3ccc(S(C)(=O)=O)cc3)NC3=C2C(=O)CC(C)(C)C3)cc1 (stereo not shown) [Compound 9c, 7,8-Dihydro-7,7-dimethyl-4-(4-methoxyphenyl)-2-(4-(methylsulfonyl)phenyl) quinolin-5(1H, 4H, 6H)-one]	250 to 253	16.6		0.17
CC1(C)CC(=O)C2=C(C1)NC(c1ccccc1)=CC2c1ccc(S(C)(=O)=O)cc1 (stereo not shown) [Compound 9h]	205 to 208	3.6	3.1	1.16
Cc1ccc(C2C=C(c3ccc(S(C)(=O)=O)cc3)NC3=C2C(=O)CC(C)(C)C3)cc1 (stereo not shown) [Compound 9b]		2.5	5.6	0.45
CC1(C)CC(=O)C2=C(C1)NC(c1ccc([N+](=O)[O-])cc1)=CC2c1ccc(S(C)(=O)=O)cc1 (stereo not shown) [Compound 9n, 7,8-Dihydro-7,7-dimethyl-4-(4-(methylsulfonyl)phenyl)-2-(4-nitrophenyl) quinolin-5 (1H, 4H, 6H)-one]	226 to 230	18.6	0.7	24.9
CC1(C)CC(=O)C2=C(C1)NC(c1ccc(Br)cc1)=CC2c1ccc(S(C)(=O)=O)cc1 (stereo not shown) [Compound 9m, 2-(4-Bromophenyl)-7,8-dihydro-7,7-dimethyl-4-(4-(methylsulfonyl)phenyl) quinolin-5 (1H, 4H, 6H)-one]	226 to 230	17.9	1.3	13.2
CC1(C)CC(=O)C2=C(C1)NC(c1ccc(S(C)(=O)=O)cc1)=CC2c1ccc(F)cc1 (stereo not shown) [Compound 9d]	130 to 133	12.9	43	0.3
COc1ccc(C2=CC(c3ccc(S(C)(=O)=O)cc3)C3=C(CC(C)(C)CC3=O)N2)cc1 (stereo not shown) [Compound 9j, 7,8-Dihydro-2-(4-methoxyphenyl)-7,7-dimethyl-4-(4-(methylsulfonyl)phenyl) quinolin-5(1H, 4H, 6H)-one]	226 to 230	18.7	62.3	0.3
CC1(C)CC(=O)C2=C(C1)NC(c1ccc(S(C)(=O)=O)cc1)=CC2c1ccccc1 (stereo not shown) [Compound 9a]		2.6	3.3	0.8
